Patent US10098883B2, “(Aza)pyridopyrazolopyrimidinones and indazolopyrimidinones and their use” (BAYER PHARMA AKTIENGESELLSCHAFT, priority 2013, dated 2018)
Where a name gives a salt, the structure may show the parent alone.

system: clot lysis (fibrinolysis) in human citrated plasma, tPA-induced; test: Plasma-based clot lysis assay (5%); type: biochemical; details: diluted human citrated plasma (platelet-poor, 5%), fibrinogen 3 μM, CaCl2 10 mM, tPA 0.2 nM, 37° C., OD 405 nm
Description: B-2. Plasma-based Clot Lysis Assay (5%)
The clot-lysis test system configures the kinetics of clot formation and degradation in vitro and allows quantifying modulation of the process by selected test compounds.
The test compounds were dissolved in 1% acetic acid and further complemented with an equal volume of DMSO. The resulting stock solutions were serially diluted in 0.5% acetic acid/50% DMSO. 1 μL aliquots of these solutions were placed into 384 well microplates (Greiner, black, transparent bottom), followed by 30 μL of diluted human citrated plasma (platelet-poor, final concentration: 5%; supplemented with fibrinogen, final concentration: 3 μM; dilution buffer: 20 mM HEPES, 150 mM NaCl, 0.01% Brij (pH 7)). The reactions were started by addition of […] of CaCl2 (final concentration: 10 mM), and tPA (tissue plasminogen activator, final concentration: 0.2 nM) in dilution buffer, followed by an additional volume of 20 μL dilution buffer for improved mixing. The reactions were incubated at 37° C. Clot formation and degradation was monitored spectrophotometrically by kinetic optical density measurements at 405 nm. IC50 values were determined by comparing the resulting time courses with the time course of a blank control reaction.

Structure (SMILES)	IC50 [nM]
O=c1cc(C2CCNCC2)n2nc3cccc(-c4ccccc4OC(F)(F)F)c3c2[nH]1 [Example 80, 4-(Piperidin-4-yl)-10-[2-(trifluoromethoxy)phenyl]pyrimido[1,2-b]indazol-2(1H)-on hydrochloride]	18
O=c1cc(C2CCNCC2)n2nc3cccc(-c4ccccn4)c3c2[nH]1 [Example 82, 4-(Piperidin-4-yl)-10-(pyridin-2-yl)pyrimido[1,2-b]indazol-2(1H)-one hydrochloride]	20
O=c1cc(C2CCNCC2)n2nc3cccc(-c4nccs4)c3c2[nH]1 [Example 83, 4-(Piperidin-4-yl)-10-(1,3-thiazol-2-yl)pyrimido[1,2-b]indazol-2(1H)-one hydrochloride]	41
Cc1ccccc1-c1cccc2nn3c(C4CCNCC4)cc(=O)[nH]c3c12 [Example 85, 10-(2-Methylphenyl)-4-(piperidin-4-yl)pyrimido[1,2-b]indazol-2(1H)-one hydrochloride]	18
Cn1cc(-c2cccc3nn4c(C5CCNCC5)cc(=O)[nH]c4c23)cn1 [Example 87, 10-(1-Methyl-1H-pyrazol-4-yl)-4-(piperidin-4-yl)pyrimido[1,2-b]indazol-2(1H)-one hydrochloride]	25
O=c1cc(C2CCNCC2)n2nc3cccc(-c4cccs4)c3c2[nH]1 [Example 88, 4-(Piperidin-4-yl)-10-(2-thienyl)pyrimido[1,2-b]indazol-2(1H)-one hydrochloride]	26
Cc1cc(Br)c2c(c1)nn1c(C3CCNCC3)cc(=O)[nH]c21 [Example 89, 10-Bromo-8-methyl-4-(piperidin-4-yl)pyrimido[1,2-b]indazol-2(1H)-one hydrochloride]	36
O=c1cc(C2CCNCC2)n2nc3ccc(F)c(Cl)c3c2[nH]1 [Example 90, 10-Chloro-9-fluoro-4-(piperidin-4-yl)pyrimido[1,2-b]indazol-2(1H)-one hydrochloride]	24
O=c1cc(C2CCNCC2)n2nc3cccc(-n4cncn4)c3c2[nH]1 [Example 91, 4-(Piperidin-4-yl)-10-(1H-1,2,4-triazol-1-yl)pyrimido[1,2-b]indazol-2(1H)-one hydrochloride]	27
O=c1cc(C2CCNCC2)n2nc3ccc(F)c(-c4ccccc4F)c3c2[nH]1 [Example 92, 9-Fluoro-10-(2-fluorophenyl)-4-(piperidin-4-yl)pyrimido[1,2-b]indazol-2(1H)-one hydrochloride]	27
CC(C)Oc1ccccc1-c1cccc2nn3c(C4CCNCC4)cc(=O)[nH]c3c12 [Example 94, 10-(2-Isopropoxyphenyl)-4-(piperidin-4-yl)pyrimido[1,2-b]indazol-2(1H)-one hydrochloride]	35
O=c1cc(C2CCNCC2)n2nc3cccc(-c4ccccc4F)c3c2[nH]1 [Example 95, 10-(2-Fluorophenyl)-4-(piperidin-4-yl)pyrimido[1,2-b]indazol-2(1H)-one]	18
O=c1cc(C2CCNCC2)n2nc3cccc(-n4cccn4)c3c2[nH]1 [Example 96, 4-(Piperidin-4-yl)-10-(1H-pyrazol-1-yl)pyrimido[1,2-b]indazol-2(1H)-one hydrochloride]	26
COc1cccc(F)c1-c1cccc2nn3c(C4CCNCC4)cc(=O)[nH]c3c12 [Example 97, 10-(2-Fluoro-6-methoxyphenyl)-4-(piperidin-4-yl)pyrimido[1,2-b]indazol-2(1H)-one hydrochloride]	30
O=c1cc(C2CCNCC2)n2nc3cccc(-n4ccnn4)c3c2[nH]1 [Example 99, 4-(Piperidin-4-yl)-10-(1H-1,2,3-triazol-1-yl)pyrimido[1,2-b]indazol-2(1H)-one hydrochloride]	29
O=c1cc(C2CCNCC2)n2nc3cccc(-c4cnc[nH]4)c3c2[nH]1 [Example 103, 10-(1H-imidazol-5-yl)-4-(piperidin-4-yl)pyrimido[1,2-b]indazol-2(1H)-one hydrochloride]	110
O=c1cc(C2CCNCC2)n2nc3cccc(-c4ccc[nH]4)c3c2[nH]1 [Example 104, 4-(piperidin-4-yl)-10-(1H-pyrrol-2-yl)pyrimido[1,2-b]indazol-2(1H)-one hydrochloride]	35

The remaining molecules from weak to strong by IC50, led by results:

IC50 [nM]	Structure (SMILES)
420	O=C(O)c1cccc2nn3c(C4CCNCC4)cc(=O)[nH]c3c12 [Example 106, 2-oxo-4-(piperidin-4-yl)-1,2-dihydropyrimido[1,2-b]indazole-10-carboxylic acid hydrochloride]
74	O=c1cc(C2CCNCC2)n2nc3cccc(O)c3c2[nH]1 [Example 105, 10-hydroxy-4-(piperidin-4-yl)pyrimido[1,2-b]indazol-2(1H)-one hydrobromide]
34	O=c1cc(C2CCNCC2)n2nc3cccc(OCC(F)(F)F)c3c2[nH]1 [Example 107, 4-(piperidin-4-yl)-10-(2,2,2-trifluoroethoxy)pyrimido[1,2-b]indazol-2(1H)-one hydrochloride]
30	Cc1ccc(Cl)c2c1nn1c(C3CCNCC3)cc(=O)[nH]c21 [Example 100, 10-Chloro-7-methyl-4-(piperidin-4-yl)pyrimido[1,2-b]indazol-2(1H)-one hydrochloride]
28	CCOc1ccccc1-c1cccc2nn3c(C4CCNCC4)cc(=O)[nH]c3c12 [Example 93, 10-(2-Ethoxyphenyl)-4-(piperidin-4-yl)pyrimido[1,2-b]indazol-2(1H)-one hydrochloride]
27	O=c1cc(C2CCNCC2)n2nc3cccc(-n4nccn4)c3c2[nH]1 [Example 98, 4-(Piperidin-4-yl)-10-(2H-1,2,3-triazol-2-yl)pyrimido[1,2-b]indazol-2(1H)-one hydrochloride]
23	O=c1cc(C2CCNCC2)n2nc3cccc(-c4ccsc4)c3c2[nH]1 [Example 84, 4-(Piperidin-4-yl)-10-(3-thienyl)pyrimido[1,2-b]indazol-2(1H)-one hydrochloride]
16	O=c1cc(C2CCNCC2)n2nc3cc(F)cc(Br)c3c2[nH]1 [Example 81, 10-Bromo-8-fluoro-4-(piperidin-4-yl)pyrimido[1,2-b]indazol-2(1H)-one hydrochloride]
15	Cn1nccc1-c1cccc2nn3c(C4CCNCC4)cc(=O)[nH]c3c12 [Example 86, 10-(1-Methyl-1H-pyrazol-5-yl)-4-(piperidin-4-yl)pyrimido[1,2-b]indazol-2(1H)-one hydrochloride]
